Test results as given in the kinase profiling compilation of Christmann-Franck et al. (2016).

Columns and labels:
Assay in all cases: radiometric filter-binding kinase assay, Kinase HotSpot
Conditions in all cases: compound 0.5 µM; ATP 10 µM
ABL2 (human) = ABL2 (human) (UniProt P42684)
AURKB (human) = AURKB (human) (UniProt Q96GD4)
CAMK2D (human) = CAMK2D (human) (UniProt Q13557)
CAMKK2 (human) = CAMKK2 (human) (UniProt Q96RR4)
CDK1 CCNB1 (human) = CDK1 CCNB1 (human) (UniProt P06493+P14635)
CHEK2 (human) = CHEK2 (human) (UniProt O96017)
Sequence of CHEK2 (human) (O96017 whole entry, looked up): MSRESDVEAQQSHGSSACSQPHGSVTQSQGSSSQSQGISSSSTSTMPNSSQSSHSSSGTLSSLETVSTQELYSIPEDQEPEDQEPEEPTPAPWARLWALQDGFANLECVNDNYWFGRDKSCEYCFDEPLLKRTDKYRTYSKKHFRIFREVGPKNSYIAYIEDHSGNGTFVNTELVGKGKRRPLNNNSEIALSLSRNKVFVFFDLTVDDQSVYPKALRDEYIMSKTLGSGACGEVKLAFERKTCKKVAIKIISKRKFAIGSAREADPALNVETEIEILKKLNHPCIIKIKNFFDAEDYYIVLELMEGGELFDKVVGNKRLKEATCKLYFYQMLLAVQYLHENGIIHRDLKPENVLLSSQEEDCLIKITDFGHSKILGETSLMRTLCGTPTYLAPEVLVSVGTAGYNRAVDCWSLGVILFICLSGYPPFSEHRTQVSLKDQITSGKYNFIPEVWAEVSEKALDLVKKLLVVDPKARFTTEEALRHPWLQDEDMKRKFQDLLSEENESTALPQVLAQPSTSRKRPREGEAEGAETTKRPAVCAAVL

CLK4 (human) = CLK4 (human) (UniProt Q9HAZ1)
CSNK1G2 (human) = CSNK1G2 (human) (UniProt P78368)
CSNK2A2 (human) = CSNK2A2 (human) (UniProt P19784)
DAPK1 (human) = DAPK1 (human) (UniProt P53355)
Sequence of DAPK1 (human) (P53355 whole entry, looked up): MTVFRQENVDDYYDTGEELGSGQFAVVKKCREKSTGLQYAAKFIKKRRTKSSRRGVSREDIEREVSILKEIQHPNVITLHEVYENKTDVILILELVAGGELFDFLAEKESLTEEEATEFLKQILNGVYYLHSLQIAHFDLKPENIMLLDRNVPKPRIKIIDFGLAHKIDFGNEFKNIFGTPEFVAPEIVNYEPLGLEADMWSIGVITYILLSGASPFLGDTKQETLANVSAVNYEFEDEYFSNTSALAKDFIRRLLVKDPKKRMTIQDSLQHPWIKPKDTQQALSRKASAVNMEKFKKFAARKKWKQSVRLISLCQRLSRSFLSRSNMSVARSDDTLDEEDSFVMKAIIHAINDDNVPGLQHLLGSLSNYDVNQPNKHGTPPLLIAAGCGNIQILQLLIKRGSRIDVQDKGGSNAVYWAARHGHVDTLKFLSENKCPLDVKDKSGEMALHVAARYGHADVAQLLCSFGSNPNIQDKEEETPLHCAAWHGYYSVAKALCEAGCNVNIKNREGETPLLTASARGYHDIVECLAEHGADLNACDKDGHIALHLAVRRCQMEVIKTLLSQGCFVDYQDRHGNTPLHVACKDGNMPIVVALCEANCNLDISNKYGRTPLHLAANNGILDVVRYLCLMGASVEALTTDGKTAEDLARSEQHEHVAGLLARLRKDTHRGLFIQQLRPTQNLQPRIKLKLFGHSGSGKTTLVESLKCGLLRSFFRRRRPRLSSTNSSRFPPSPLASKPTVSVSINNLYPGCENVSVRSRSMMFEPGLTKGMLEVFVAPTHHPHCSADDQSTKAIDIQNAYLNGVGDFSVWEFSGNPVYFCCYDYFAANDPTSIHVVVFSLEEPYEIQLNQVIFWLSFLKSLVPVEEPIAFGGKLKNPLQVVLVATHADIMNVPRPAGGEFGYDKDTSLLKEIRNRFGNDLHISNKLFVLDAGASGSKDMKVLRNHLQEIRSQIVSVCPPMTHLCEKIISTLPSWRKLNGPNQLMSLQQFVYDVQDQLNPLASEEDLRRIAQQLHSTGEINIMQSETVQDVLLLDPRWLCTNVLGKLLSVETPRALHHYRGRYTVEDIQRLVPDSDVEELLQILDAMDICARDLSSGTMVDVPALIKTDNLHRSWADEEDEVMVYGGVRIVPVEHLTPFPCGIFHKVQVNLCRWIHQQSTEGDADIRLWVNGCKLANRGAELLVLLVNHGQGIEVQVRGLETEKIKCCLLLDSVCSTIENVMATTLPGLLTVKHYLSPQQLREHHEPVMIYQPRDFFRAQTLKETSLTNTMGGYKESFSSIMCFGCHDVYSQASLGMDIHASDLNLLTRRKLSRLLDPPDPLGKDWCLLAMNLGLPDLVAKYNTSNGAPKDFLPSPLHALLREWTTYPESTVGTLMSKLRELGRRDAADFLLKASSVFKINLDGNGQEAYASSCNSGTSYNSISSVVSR

EGFR (human) = EGFR (human) (UniProt P00533)
EPHA1 (human) = EPHA1 (human) (UniProt P21709)
FER (human) = FER (human) (UniProt P16591)
FGFR3 (human) = FGFR3 (human) (UniProt P22607)
HCK (human) = HCK (human) (UniProt P08631)
Sequence of HCK (human) (P08631 whole entry, looked up): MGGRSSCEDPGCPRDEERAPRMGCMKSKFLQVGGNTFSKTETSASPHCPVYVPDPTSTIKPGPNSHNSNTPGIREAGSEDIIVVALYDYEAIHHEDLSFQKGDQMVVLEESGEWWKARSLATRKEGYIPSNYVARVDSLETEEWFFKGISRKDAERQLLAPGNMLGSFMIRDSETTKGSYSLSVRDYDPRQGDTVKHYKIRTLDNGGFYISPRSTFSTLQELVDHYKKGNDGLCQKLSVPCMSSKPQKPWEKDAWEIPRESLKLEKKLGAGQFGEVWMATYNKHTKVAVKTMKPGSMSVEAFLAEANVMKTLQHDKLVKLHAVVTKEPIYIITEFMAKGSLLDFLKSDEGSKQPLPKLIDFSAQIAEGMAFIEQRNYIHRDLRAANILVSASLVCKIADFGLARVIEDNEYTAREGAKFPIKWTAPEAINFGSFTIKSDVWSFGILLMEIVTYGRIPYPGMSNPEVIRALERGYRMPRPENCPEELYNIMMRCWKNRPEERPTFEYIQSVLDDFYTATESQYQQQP

HIPK1 (human) = HIPK1 (human) (UniProt Q86Z02)
IKBKE (human) = IKBKE (human) (UniProt Q14164)
INSR (human) = INSR (human) (UniProt P06213)
JAK3 JH1 JH2 (human) = JAK3 JH1 JH2 (human) (UniProt P52333)
LIMK1 (human) = LIMK1 (human) (UniProt P53667)
MAPK12 (human) = MAPK12 (human) (UniProt P53778)
MAPK3 (human) = MAPK3 (human) (UniProt P27361)
NEK7 (human) = NEK7 (human) (UniProt Q8TDX7)
PAK4 (human) = PAK4 (human) (UniProt O96013)
PDGFRB (human) = PDGFRB (human) (UniProt P09619)
PDPK1 (human) = PDPK1 (human) (UniProt O15530)
Sequence of PDPK1 (human) (O15530 whole entry, looked up): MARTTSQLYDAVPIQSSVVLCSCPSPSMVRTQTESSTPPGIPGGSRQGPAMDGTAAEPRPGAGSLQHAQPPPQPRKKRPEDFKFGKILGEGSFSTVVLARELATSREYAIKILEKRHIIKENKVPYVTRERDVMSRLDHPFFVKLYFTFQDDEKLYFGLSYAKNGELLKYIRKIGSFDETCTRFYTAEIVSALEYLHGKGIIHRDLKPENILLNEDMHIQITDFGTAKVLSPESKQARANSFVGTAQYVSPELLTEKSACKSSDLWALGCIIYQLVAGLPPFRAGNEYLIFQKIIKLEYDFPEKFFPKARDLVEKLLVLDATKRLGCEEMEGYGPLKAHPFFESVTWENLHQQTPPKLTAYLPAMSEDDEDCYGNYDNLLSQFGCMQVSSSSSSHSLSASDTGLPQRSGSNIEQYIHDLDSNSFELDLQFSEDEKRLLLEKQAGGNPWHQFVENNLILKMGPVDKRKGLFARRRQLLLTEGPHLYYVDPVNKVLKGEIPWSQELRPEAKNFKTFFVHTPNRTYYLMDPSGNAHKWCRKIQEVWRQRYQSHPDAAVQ

PKN2 (human) = PKN2 (human) (UniProt Q16513)
PRKCB1 (human) = PRKCB1 (human) (UniProt P05771)
RPS6KA1 KD1 KD2 (human) = RPS6KA1 KD1 KD2 (human) (UniProt Q15418)
Sequence of RPS6KA1 KD1 KD2 (human) (Q15418 whole entry, looked up): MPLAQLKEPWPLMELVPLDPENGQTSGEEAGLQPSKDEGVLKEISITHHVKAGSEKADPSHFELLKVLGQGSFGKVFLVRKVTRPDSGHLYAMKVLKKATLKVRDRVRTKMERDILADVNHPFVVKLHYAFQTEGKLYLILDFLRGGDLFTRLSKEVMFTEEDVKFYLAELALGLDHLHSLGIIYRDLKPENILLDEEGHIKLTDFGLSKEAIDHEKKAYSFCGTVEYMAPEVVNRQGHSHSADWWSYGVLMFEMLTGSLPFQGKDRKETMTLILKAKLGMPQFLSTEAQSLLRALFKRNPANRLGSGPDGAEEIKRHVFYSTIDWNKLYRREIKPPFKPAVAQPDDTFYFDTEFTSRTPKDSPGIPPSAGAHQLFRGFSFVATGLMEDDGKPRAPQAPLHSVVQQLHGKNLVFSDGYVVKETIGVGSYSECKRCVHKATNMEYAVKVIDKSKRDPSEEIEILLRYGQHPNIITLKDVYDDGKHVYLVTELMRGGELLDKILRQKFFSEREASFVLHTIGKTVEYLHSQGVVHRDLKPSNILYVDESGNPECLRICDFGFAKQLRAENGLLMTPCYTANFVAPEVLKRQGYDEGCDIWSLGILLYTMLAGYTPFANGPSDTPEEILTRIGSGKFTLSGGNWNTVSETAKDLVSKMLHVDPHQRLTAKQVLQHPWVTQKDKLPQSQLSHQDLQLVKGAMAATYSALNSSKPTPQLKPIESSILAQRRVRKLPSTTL

RPS6KB2 (human) = RPS6KB2 (human) (UniProt Q9UBS0)
Sequence of RPS6KB2 (human) (Q9UBS0 whole entry, looked up): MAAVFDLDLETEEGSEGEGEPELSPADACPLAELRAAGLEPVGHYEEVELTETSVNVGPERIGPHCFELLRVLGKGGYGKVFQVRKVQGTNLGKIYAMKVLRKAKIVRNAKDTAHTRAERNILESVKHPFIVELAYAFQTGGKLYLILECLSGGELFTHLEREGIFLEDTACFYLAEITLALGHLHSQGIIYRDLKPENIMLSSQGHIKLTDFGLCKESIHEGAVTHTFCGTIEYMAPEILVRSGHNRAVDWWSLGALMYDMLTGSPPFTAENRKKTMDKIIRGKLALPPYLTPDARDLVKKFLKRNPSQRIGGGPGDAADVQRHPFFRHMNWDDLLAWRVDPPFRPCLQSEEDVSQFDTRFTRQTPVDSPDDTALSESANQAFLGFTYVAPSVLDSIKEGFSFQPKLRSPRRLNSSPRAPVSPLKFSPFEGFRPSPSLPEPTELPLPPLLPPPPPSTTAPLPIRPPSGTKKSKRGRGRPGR

TAOK1 (human) = TAOK1 (human) (UniProt Q7L7X3)
TNK2 (human) = TNK2 (human) (UniProt Q07912)
TSSK1B (human) = TSSK1B (human) (UniProt Q9BXA7)
TTK (human) = TTK (human) (UniProt P33981)
[1] = system: ARAF (human), P10398 [Y301D/Y302D]
BRAF (human) = BRAF (human) (UniProt P15056)

Sequence of CDK1 CCNB1 (human) (P06493 whole entry, looked up): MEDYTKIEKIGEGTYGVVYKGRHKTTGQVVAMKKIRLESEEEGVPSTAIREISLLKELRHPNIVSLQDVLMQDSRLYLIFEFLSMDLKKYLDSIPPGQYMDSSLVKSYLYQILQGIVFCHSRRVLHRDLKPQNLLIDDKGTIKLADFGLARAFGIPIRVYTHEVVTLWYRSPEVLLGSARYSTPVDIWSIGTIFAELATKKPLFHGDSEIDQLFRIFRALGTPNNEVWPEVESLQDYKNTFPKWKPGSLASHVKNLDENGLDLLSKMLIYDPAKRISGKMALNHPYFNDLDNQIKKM
Sequence of CDK1 CCNB1 (human) (P14635 whole entry, looked up): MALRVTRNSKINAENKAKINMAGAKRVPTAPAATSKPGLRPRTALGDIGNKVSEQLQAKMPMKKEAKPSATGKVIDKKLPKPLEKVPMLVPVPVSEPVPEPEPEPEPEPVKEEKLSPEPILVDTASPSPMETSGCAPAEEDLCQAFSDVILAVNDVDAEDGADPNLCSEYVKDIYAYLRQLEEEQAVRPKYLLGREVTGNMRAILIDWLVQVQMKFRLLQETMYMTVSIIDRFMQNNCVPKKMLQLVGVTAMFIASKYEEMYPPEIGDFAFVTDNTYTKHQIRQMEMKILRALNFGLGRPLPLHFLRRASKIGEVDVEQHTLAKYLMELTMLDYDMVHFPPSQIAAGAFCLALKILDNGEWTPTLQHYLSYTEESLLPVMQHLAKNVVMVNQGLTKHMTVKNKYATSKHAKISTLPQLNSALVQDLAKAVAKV

## O=C1Nc2ccccc2/C1=C\c1c(Cl)[nH]c2ccccc12
ABL2 (human)
  residual activity: 91.4%
AURKB (human)
  residual activity: 97.9%
CAMK2D (human)
  residual activity: 86.7%
CAMKK2 (human)
  residual activity: 97.8%
CDK1 CCNB1 (human)
  residual activity: 94.3%
CHEK2 (human)
  residual activity: 99.4%
CLK4 (human)
  residual activity: 105%
CSNK1G2 (human)
  residual activity: 96.3%
CSNK2A2 (human)
  residual activity: 94.3%
DAPK1 (human)
  residual activity: 88.1%
EGFR (human)
  residual activity: 97.5%
EPHA1 (human)
  residual activity: 98.5%
FER (human)
  residual activity: 91.8%
FGFR3 (human)
  residual activity: 101%
HCK (human)
  residual activity: 98.5%
HIPK1 (human)
  residual activity: 100%
IKBKE (human)
  residual activity: 98%
INSR (human)
  residual activity: 91.2%
JAK3 JH1 JH2 (human)
  residual activity: 102%
LIMK1 (human)
  residual activity: 109%
MAPK12 (human)
  residual activity: 93%
MAPK3 (human)
  residual activity: 109%
NEK7 (human)
  residual activity: 97.6%
PAK4 (human)
  residual activity: 104%
PDGFRB (human)
  residual activity: 102%
PDPK1 (human)
  residual activity: 94.3%
PKN2 (human)
  residual activity: 96.3%
PRKCB1 (human)
  residual activity: 105%
RPS6KA1 KD1 KD2 (human)
  residual activity: 105%
RPS6KB2 (human)
  residual activity: 99.4%
TAOK1 (human)
  residual activity: 100%
TNK2 (human)
  residual activity: 98.4%
TSSK1B (human)
  residual activity: 101%
TTK (human)
  residual activity: 101%

## O=C(NC(NC(=S)Nc1ccc(F)c([N+](=O)[O-])c1)C(Cl)(Cl)Cl)C(c1ccccc1)c1ccccc1 (stereo not given)
ABL2 (human)
  residual activity: 105%
AURKB (human)
  residual activity: 95.3%
CAMK2D (human)
  residual activity: 102%
CAMKK2 (human)
  residual activity: 126%
CDK1 CCNB1 (human)
  residual activity: 92.1%
CHEK2 (human)
  residual activity: 97.6%
CLK4 (human)
  residual activity: 105%
CSNK1G2 (human)
  residual activity: 98.3%
CSNK2A2 (human)
  residual activity: 97%
DAPK1 (human)
  residual activity: 75.1%
EGFR (human)
  residual activity: 108%
EPHA1 (human)
  residual activity: 88.1%
FER (human)
  residual activity: 104%
FGFR3 (human)
  residual activity: 96.8%
HCK (human)
  residual activity: 107%
HIPK1 (human)
  residual activity: 108%
IKBKE (human)
  residual activity: 106%
INSR (human)
  residual activity: 100%
JAK3 JH1 JH2 (human)
  residual activity: 110%
LIMK1 (human)
  residual activity: 94.5%
MAPK3 (human)
  residual activity: 120%
NEK7 (human)
  residual activity: 102%
PAK4 (human)
  residual activity: 118%
PDGFRB (human)
  residual activity: 105%
PDPK1 (human)
  residual activity: 112%
PKN2 (human)
  residual activity: 88.1%
PRKCB1 (human)
  residual activity: 103%
RPS6KA1 KD1 KD2 (human)
  residual activity: 105%
RPS6KB2 (human)
  residual activity: 99.3%
TAOK1 (human)
  residual activity: 104%
TNK2 (human)
  residual activity: 98%
TSSK1B (human)
  residual activity: 93.4%
TTK (human)
  residual activity: 96.9%

## O=C1Cc2c([nH]c3ccc([N+](=O)[O-])cc23)-c2ccccc2N1
ABL2 (human)
  residual activity: 54.6%
[1]
  residual activity: 96.2%
AURKB (human)
  residual activity: 85.9%
BRAF (human)
  residual activity: 99.5%
CAMK2D (human)
  residual activity: 79.3%
CAMKK2 (human)
  residual activity: 79.5%
CDK1 CCNB1 (human)
  residual activity: 23.2%
CHEK2 (human)
  residual activity: 7.9%
CLK4 (human)
  residual activity: 86.4%
CSNK1G2 (human)
  residual activity: 91.7%
CSNK2A2 (human)
  residual activity: 64.4%
DAPK1 (human)
  residual activity: 104%
EPHA1 (human)
  residual activity: 94.8%
FER (human)
  residual activity: 75.1%
FGFR3 (human)
  residual activity: 90.5%
HCK (human)
  residual activity: 71.8%
HIPK1 (human)
  residual activity: 98.5%
IKBKE (human)
  residual activity: 93.4%
INSR (human)
  residual activity: 101%
JAK3 JH1 JH2 (human)
  residual activity: 99.7%
LIMK1 (human)
  residual activity: 94.3%
MAPK12 (human)
  residual activity: 112%
MAPK3 (human)
  residual activity: 93.5%
NEK7 (human)
  residual activity: 89.7%
PAK4 (human)
  residual activity: 93.9%
PDGFRB (human)
  residual activity: 87.4%
PDPK1 (human)
  residual activity: 93.7%
PKN2 (human)
  residual activity: 74.5%
PRKCB1 (human)
  residual activity: 105%
RPS6KA1 KD1 KD2 (human)
  residual activity: 89.7%
RPS6KB2 (human)
  residual activity: 96.5%
TAOK1 (human)
  residual activity: 66.9%
TNK2 (human)
  residual activity: 74.9%
TSSK1B (human)
  residual activity: 74.7%
TTK (human)
  residual activity: 87.4%

## CC(C)(C)c1nc2c3ccc(F)cc3c3c(=O)[nH]ccc3c2[nH]1
ABL2 (human)
  residual activity: 90.3%
[1]
  residual activity: 122%
AURKB (human)
  residual activity: 11.2%
BRAF (human)
  residual activity: 117%
CAMK2D (human)
  residual activity: 59.4%
CAMKK2 (human)
  residual activity: 69.4%
CDK1 CCNB1 (human)
  residual activity: 74.9%
CHEK2 (human)
  residual activity: 0.717%
CLK4 (human)
  residual activity: 70.7%
CSNK1G2 (human)
  residual activity: 100%
CSNK2A2 (human)
  residual activity: 91.5%
DAPK1 (human)
  residual activity: 3.03%
EGFR (human)
  residual activity: 94.8%
EPHA1 (human)
  residual activity: 80.5%
FER (human)
  residual activity: 34%
FGFR3 (human)
  residual activity: 93%
HCK (human)
  residual activity: 84.8%
HIPK1 (human)
  residual activity: 88.7%
IKBKE (human)
  residual activity: 25.4%
INSR (human)
  residual activity: 80.6%
JAK3 JH1 JH2 (human)
  residual activity: 0.445%
LIMK1 (human)
  residual activity: 73.7%
MAPK12 (human)
  residual activity: 97.9%
MAPK3 (human)
  residual activity: 85.7%
NEK7 (human)
  residual activity: 76.5%
PAK4 (human)
  residual activity: 105%
PDPK1 (human)
  residual activity: 27%
PKN2 (human)
  residual activity: 67.1%
PRKCB1 (human)
  residual activity: 91.5%
RPS6KA1 KD1 KD2 (human)
  residual activity: 38.6%
RPS6KB2 (human)
  residual activity: 102%
TAOK1 (human)
  residual activity: 86.9%
TNK2 (human)
  residual activity: 4.36%
TSSK1B (human)
  residual activity: 37.3%
TTK (human)
  residual activity: 65.3%

## Nc1nc(Nc2ccc(S(N)(=O)=O)cc2)nn1C(=S)Nc1c(F)cccc1F
ABL2 (human)
  residual activity: 10.5%
[1]
  residual activity: 129%
AURKB (human)
  residual activity: 12.9%
BRAF (human)
  residual activity: 87.2%
CAMK2D (human)
  residual activity: 15.6%
CAMKK2 (human)
  residual activity: 5.4%
CDK1 CCNB1 (human)
  residual activity: -1.78%
CHEK2 (human)
  residual activity: 1.96%
CLK4 (human)
  residual activity: 1.92%
CSNK1G2 (human)
  residual activity: 14.8%
CSNK2A2 (human)
  residual activity: 81.9%
DAPK1 (human)
  residual activity: 81.3%
EPHA1 (human)
  residual activity: 37.4%
FER (human)
  residual activity: 21.7%
FGFR3 (human)
  residual activity: 4.96%
HCK (human)
  residual activity: 37.9%
HIPK1 (human)
  residual activity: 105%
IKBKE (human)
  residual activity: 67.2%
JAK3 JH1 JH2 (human)
  residual activity: 5.21%
LIMK1 (human)
  residual activity: -0.611%
MAPK12 (human)
  residual activity: 95.2%
MAPK3 (human)
  residual activity: 78.9%
NEK7 (human)
  residual activity: 82.6%
PAK4 (human)
  residual activity: 47.6%
PDGFRB (human)
  residual activity: 45.6%
PDPK1 (human)
  residual activity: 19.3%
PKN2 (human)
  residual activity: 19.1%
PRKCB1 (human)
  residual activity: 75.2%
RPS6KA1 KD1 KD2 (human)
  residual activity: 5.34%
RPS6KB2 (human)
  residual activity: 96.2%
TAOK1 (human)
  residual activity: 11.3%
TNK2 (human)
  residual activity: 6.41%
TSSK1B (human)
  residual activity: 13.7%
TTK (human)
  residual activity: 60.6%

## O=c1cc(-c2cccc3c2Sc2ccccc2S3)oc(N2CCOCC2)c1
ABL2 (human)
  residual activity: 92%
AURKB (human)
  residual activity: 95.8%
CAMK2D (human)
  residual activity: 104%
CAMKK2 (human)
  residual activity: 133%
CDK1 CCNB1 (human)
  residual activity: 88.5%
CHEK2 (human)
  residual activity: 102%
CLK4 (human)
  residual activity: 101%
CSNK1G2 (human)
  residual activity: 93.3%
CSNK2A2 (human)
  residual activity: 96%
DAPK1 (human)
  residual activity: 82.7%
EGFR (human)
  residual activity: 107%
EPHA1 (human)
  residual activity: 84.7%
FER (human)
  residual activity: 103%
FGFR3 (human)
  residual activity: 94.7%
HCK (human)
  residual activity: 102%
HIPK1 (human)
  residual activity: 99.6%
IKBKE (human)
  residual activity: 96.5%
INSR (human)
  residual activity: 105%
JAK3 JH1 JH2 (human)
  residual activity: 108%
LIMK1 (human)
  residual activity: 103%
MAPK12 (human)
  residual activity: 114%
MAPK3 (human)
  residual activity: 118%
NEK7 (human)
  residual activity: 105%
PAK4 (human)
  residual activity: 116%
PDGFRB (human)
  residual activity: 102%
PDPK1 (human)
  residual activity: 104%
PKN2 (human)
  residual activity: 72.9%
PRKCB1 (human)
  residual activity: 103%
RPS6KA1 KD1 KD2 (human)
  residual activity: 97.6%
RPS6KB2 (human)
  residual activity: 102%
TAOK1 (human)
  residual activity: 107%
TNK2 (human)
  residual activity: 95.7%
TSSK1B (human)
  residual activity: 107%
TTK (human)
  residual activity: 106%
